Assay results: patent US9029545B2, “Thienopyridine NOX2 inhibitors” (GlaxoSmithKline Intellectual Property Limited, priority 2009, dated 2015)

Target: T1, NOX2 in differentiated HL60 cells (Homo sapiens, UniProt P04839)
T1 construct: Differentiation of HL-60 cells to granulocytes increases NOX2 expression; endogenous in cells; host or cells: HL60 cells differentiated to neutrophil-like cells with 1.3% DMSO and stimulated with PMA
T1 sequence (P04839 1-570): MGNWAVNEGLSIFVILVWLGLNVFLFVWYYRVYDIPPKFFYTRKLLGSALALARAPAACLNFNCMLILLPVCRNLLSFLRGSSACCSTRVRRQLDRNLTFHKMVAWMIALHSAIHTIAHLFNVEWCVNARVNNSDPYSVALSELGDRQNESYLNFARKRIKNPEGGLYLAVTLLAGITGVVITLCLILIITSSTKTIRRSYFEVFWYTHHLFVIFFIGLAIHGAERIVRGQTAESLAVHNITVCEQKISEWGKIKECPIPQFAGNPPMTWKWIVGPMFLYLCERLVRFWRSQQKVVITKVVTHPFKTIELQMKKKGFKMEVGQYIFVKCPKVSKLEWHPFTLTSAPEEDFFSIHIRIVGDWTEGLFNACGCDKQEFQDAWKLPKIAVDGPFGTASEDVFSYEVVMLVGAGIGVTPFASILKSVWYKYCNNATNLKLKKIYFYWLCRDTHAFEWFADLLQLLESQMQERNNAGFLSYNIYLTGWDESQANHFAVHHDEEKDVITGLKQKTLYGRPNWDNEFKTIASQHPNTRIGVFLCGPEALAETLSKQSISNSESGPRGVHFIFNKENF
T1 sequence (P13498 1-195 partner): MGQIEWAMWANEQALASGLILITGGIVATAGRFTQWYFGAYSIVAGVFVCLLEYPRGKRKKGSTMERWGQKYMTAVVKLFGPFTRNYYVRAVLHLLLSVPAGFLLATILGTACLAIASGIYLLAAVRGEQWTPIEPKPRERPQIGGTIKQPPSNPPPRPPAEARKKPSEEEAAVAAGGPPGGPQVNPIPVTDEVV
Assay: HL60 cell-based assays (Assay 1 Oxyburst green BSA fluorescence, Assay 2 L-012 luminescence); result stated for at least one of them
Details: PMA-stimulated superoxide production in differentiated HL60 cells; at least one of Oxyburst and L012 assays; read-out: pIC50 in at least one of the HL60 assays (converted)
Method: In the cell-based assay, superoxide production by NOX2 was measured in differentiated HL60 cells, a human myelomonocytic leukemia cell line, using either Oxyburst (Assay1) or L012 (Assay2). Differentiation of HL-60 cells to granulocytes increases NOX2 expression. The phorbol 12-myristate 13-acetate (PMA) was used to stimulate the production of superoxide in HL60 cells by activating protein kinase C, which then activated the NADPH oxidase (NOX) enzymes. Inhibition of NOX2 enzyme was detected by the reversal of fluorescence signal (Assay1) or luminescence signal (Assay2). The control inhibitor used was diphenyleneiodonium chloride (DPI), a […] inhibitor capable of non-selectively inhibiting superoxide produced by NOX enzymes.
Assay 1: in this high-throughput screening assay, oxyburst green bovine serum albumin (BSA) was used to detect superoxide production in HL60 cells. Oxidation of Oxyburst green BSA by hydrogen peroxide as a result of the activation of NOX2 by PMA. Oxyburst green BSA fluorescence was measured at excitation 485 nm and emission 530 nm.
Assay 2: in this assay, a chemiluminescence probe, L-012 was used to detect superoxide production in HL60 cells. L-012 reacted with various types of reactive oxygen species generated by PMA-activated HL60 cells. Luminescence was measured using Tecan Infinite 500.
The HL60 cells were differentiated into neutrophil-like cells by adding 1.3% DMSO in the media for 3-7 days (Hua, J et al. (2000) Journal of Leukocyte Biology. 68:216-224). Iscove's Modified Dulbecco's Media (IMDM) with L-Glutamine and 25 mM HEPES buffer, Fetal Bovine Serum (FBS), Penicillin/Streptomycin, Oxyburst Green BSA, PBS, and HBSS buffer with Calcium Chloride and Magnesium Chloride were purchased from Invitrogen (Catalog #s: 12440-061, 10500-064, 15140-163, O-13291, 14190-250, and 14025-134 respectively). Phorbol 12-myristate 13-acetate (PMA), glucose, and CHAPS were purchased from Sigma (Catalog #s: 79346, D-9434, and C5070 respectively). Diphenyleneiodonium chloride (DPI) was purchased from Toronto Research Chemicals (Catalog #: D491500). L-012 was purchased from Wako Chemical (Catalog #: 120-04891). Dimethyl sulfoxide (DMSO) was purchased EMD Chemicals (VWR Catalog #: MX1456-1). Multidrop combi was purchased from Thermo Electron Corporation (Waltham, Mass., USA). Hummingbird nanoliter liquid dispenser was purchased from Genomics Solution (Ann Arbor, Mich., USA). 384 well low-volume plates and polypropylene 384 well clear plates were purchased from Greiner (Catalog #: 784076 and 781280 respectively). 96 well plate and 384 well plate black assay plates were purchased from Greiner (Catalog #: 655094 and 781098). 96 well plate for compound serial dilution was purchased from Corning (Catalog #: 9017). Acquest or Analyst fluorescence plate reader was purchased from LJL Biosystems/Molecular Devices (California, USA). Tecan Infinite 500 was purchased from Tecan (Switzerland).
Media for HL60 cells were kept at 4° C. for storage and were warmed to 37° C. in a water bath before use. The media components were IMDM media with 20% FBS and 1% Penicillin/Streptomycin.
Buffer to be used for compound addition and compound dilution consisted of HBSS buffer with 0.1% glucose.
Buffer to be used for cells consisted of HBSS buffer with 0.1% glucose and 0.01% CHAPS.
HL60 cells were thawed and resuspended in Cells media. The cells were centrifuged at 1200 rpm for 8 minutes. Media was aspirated and the cells were resuspended in Cells buffer. The cells were counted and resuspended to 1×10^6 cells/mL.
Full inhibition controls were dispensed using 100 nL/well of 1 mM DPI in DMSO to column 18 of a 384 well plate. Compounds were dispensed using 100 nL/well. Full activity controls were dispensed using 100 nL/well of 4 uM PMA in DMSO. Oxyburst Green BSA was added to cell solution at 10 ug/mL. Using the Multidrop, 10 uL cell solution was added to the entire assay plate. The assay plate was incubated at room temperature for 100 minutes. […]

Row | IC50 [µM] | SMILES
1 | < 100 | COc1cccc(-c2c(-c3cn[nH]c3)sc3nc(C)cc(NS(=O)(=O)c4cccc(Cl)c4)c23)c1 [Example 58, 3-Chloro-N-[6-methyl-3-[3-(methyloxy)phenyl]-2-(1H-pyrazol-4-yl)thieno[2,3-b]pyridin-4-yl]benzenesulfonamide]
2 | < 100 | Cc1cccc(-c2c(C)sc3nc(C)cc(NS(=O)(=O)c4cccc(Cl)c4)c23)c1 [Example 69, 3-Chloro-N-[2,6-dimethyl-3-(3-methylphenyl)thieno[2,3-b]pyridin-4-yl]benzenesulfonamide]
